# Assays:
# [1] = target: T1, [Pyruvate dehydrogenase (acetyl-transferring)] kinase isozyme 1, mitochondrial (Homo sapiens, UniProt Q15118); assay: Competitive binding affinity to recombinant N-terminal 6xHis-SUMO-tagged human PDK1 (29 to 436 residues) expressed in Escherichia coli BL-21 assessed as Kd of AZD7545 at 50 uM by isothermal titration calorimetric method (Rvb = 290.6 nM)
# [2] = target: T1, [Pyruvate dehydrogenase (acetyl-transferring)] kinase isozyme 1, mitochondrial; assay: Competitive binding affinity to recombinant N-terminal 6xHis-SUMO-tagged human PDK1 (29 to 436 residues) expressed in Escherichia coli BL-21 assessed as Kd of ADP at 50 uM by isothermal titration calorimetric method (Rvb = 4.27 uM)
# T1 sequence (Q15118 whole entry, the tested form may be a part): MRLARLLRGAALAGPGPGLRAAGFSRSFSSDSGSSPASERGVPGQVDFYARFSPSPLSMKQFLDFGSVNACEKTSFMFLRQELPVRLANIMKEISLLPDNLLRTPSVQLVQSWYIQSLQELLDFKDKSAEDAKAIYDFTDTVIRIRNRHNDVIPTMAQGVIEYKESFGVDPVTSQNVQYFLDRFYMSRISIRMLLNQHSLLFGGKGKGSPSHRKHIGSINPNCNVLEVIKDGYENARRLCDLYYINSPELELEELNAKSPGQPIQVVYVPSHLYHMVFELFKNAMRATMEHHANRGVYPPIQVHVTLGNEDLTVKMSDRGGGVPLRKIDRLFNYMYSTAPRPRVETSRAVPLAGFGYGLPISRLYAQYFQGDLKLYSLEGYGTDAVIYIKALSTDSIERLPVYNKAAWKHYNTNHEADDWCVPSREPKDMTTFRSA
smiles,measurement,setting,value
O=C(Nc1ccc(Cl)c(C(F)(F)F)c1)C(Cl)Cl,Kd,[1],0.291 µM
same,Kd,[2],7.87 µM

# Source: BindingDB's records for doi:10.1021/acs.jmedchem.5b01828 (University of Macau, 2016)
